Experimental data taken from patent US20220298146A1, “HETEROCYCLIC DERIVATIVE AND USE THEREOF” (Transthera Sciences (Nanjing), Inc., priority 2019, published 2022).
pIC50: −log10 of the molar value. Like-named read-outs stand apart in the source and are kept apart here.

What was measured:
Ron (h) = target: T1, Ron (h) (Homo sapiens, UniProt Q04912); experiment: Enzymatic activity assay, Ron (h) kinase, [γ-33P]-ATP; format: biochemical; settings: 10 μM [γ-33P]-ATP, 40 min, room temperature; read-out: Inhibitory Activity on Ron (h) kinase, IC50
T1 construct: purchased
T1 sequence (Q04912 25-1400): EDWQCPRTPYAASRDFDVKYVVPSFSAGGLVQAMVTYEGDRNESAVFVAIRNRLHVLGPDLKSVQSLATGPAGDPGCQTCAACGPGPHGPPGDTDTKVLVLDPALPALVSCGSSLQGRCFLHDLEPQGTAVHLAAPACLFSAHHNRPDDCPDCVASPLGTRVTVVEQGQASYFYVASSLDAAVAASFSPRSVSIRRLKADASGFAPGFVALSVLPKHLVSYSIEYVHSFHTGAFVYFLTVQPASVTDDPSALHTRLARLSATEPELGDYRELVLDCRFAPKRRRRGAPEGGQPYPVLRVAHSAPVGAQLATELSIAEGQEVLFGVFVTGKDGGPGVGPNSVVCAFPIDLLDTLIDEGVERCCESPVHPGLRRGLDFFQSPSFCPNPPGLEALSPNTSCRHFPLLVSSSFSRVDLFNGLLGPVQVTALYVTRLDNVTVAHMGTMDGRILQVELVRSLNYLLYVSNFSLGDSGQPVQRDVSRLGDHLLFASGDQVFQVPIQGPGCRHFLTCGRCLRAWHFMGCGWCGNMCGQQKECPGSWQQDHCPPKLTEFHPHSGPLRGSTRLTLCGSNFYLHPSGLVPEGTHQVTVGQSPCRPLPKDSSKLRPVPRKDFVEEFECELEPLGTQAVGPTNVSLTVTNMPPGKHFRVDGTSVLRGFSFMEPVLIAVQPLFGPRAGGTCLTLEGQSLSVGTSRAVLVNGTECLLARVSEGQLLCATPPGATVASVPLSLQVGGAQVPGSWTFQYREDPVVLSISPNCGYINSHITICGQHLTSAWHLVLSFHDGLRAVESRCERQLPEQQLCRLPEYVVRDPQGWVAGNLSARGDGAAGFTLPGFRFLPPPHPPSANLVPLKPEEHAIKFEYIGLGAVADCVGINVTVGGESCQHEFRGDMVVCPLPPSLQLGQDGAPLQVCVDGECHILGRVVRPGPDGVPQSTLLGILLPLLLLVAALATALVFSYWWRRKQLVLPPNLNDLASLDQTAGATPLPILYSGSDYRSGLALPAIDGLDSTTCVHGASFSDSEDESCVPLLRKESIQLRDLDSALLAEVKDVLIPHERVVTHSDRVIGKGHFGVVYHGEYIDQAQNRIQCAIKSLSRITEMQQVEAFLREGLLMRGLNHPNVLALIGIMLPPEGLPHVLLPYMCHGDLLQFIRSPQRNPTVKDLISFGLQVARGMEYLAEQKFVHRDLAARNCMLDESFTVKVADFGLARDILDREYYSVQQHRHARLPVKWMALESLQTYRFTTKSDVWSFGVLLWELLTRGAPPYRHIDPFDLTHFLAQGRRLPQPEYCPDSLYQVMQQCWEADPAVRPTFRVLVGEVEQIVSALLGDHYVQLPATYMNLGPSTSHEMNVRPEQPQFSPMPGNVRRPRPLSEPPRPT
Experimental: Test samples: the compounds of the present invention, having structures and preparation methods shown above.
(1) Preparation of Compound Stock Solutions
Compounds were each dissolved in 100% DMSO to prepare stock solutions with a maximum concentration of 500 μM.
(2) Preparation of Compound Working Solutions
The compound stock solutions were diluted to final concentrations of 500 μM, 150 μM, 50 μM, 15 μM, 5 μM, 1.5 μM, 0.5 μM, 0.15 μM and 0.05 μM to prepare compound working solutions (50×).
(3) Preparation of Different Enzymatic Reaction Solutions
Ron (h) enzyme was dissolved in a mixture of 8 mM MOPS (pH 7.0), 0.2 mM EDTA and 250 μM GGMEDIYFEFMGGKKK to prepare an enzyme solution with a final concentration of 40.4 nM. An Mg/ATP mixture of 10 mM magnesium acetate and 10 μM [γ-^33P]-ATP was used to activate the enzymatic reaction.
The compound working solutions were added to a 384-well plate, with final concentrations of 10000 nM, 3000 nM, 1000 nM, 300 nM, 100 nM, 30 nM, 10 nM, 3 nM and 1 nM, respectively, and then different enzymatic reaction solutions prepared according to the above conditions were added. The reaction solutions were incubated at room temperature for 40 min, and then 0.5% phosphoric acid solutions were added to terminate the reaction. 10 μL of the reaction solution was added dropwise to P30 filter paper which was washed 4 times with a 0.425% phosphoric acid solution and once with methanol and then placed in a scintillation counter for detection. Gray analysis was performed on the results with Image J software, and IC50 values were calculated with GraphPad 5.0 software.

[1] = Beagle PK evaluation experiment; format: in vivo; settings: dog, plasma; for AUC(0-t) / clearance / Vd / half-life / Tmax: dose 1 mg/kg; for clearance: n=3, read-out: Cl_obs iv (clearance rate) (converted); for Vd: n=3, read-out: Vz_obs iv (apparent volume of distribution); for bioavailability: iv/po dose 1/1 mg/kg, n=3, read-out: F % (absolute bioavailability); for Tmax: n=3, median, read-out: Tmax po (time to maximum plasma concentration)
Experimental: Test samples: the compounds of the present invention, prepared according to exemplary methods.
Administration and Sample Collection:
Experimental compounds 11, 12 and 35 were each dissolved in a mixture of 5% DMSO+20% (30% Solutol)+75% saline to prepare solutions. The compound solutions were administrated via intragastric gavage to beagles at a dose of 1.0 mg/kg, respectively. The blood was collected at time points of 0 min, 15 min, 30 min, 1 h, 2 h, 4 h, 6 h, 8 h, 10 h and 24 h.
(§1) Experimental compounds 11, 12 and 35 were each dissolved in a mixture of 5% DMSO+20% (30% Solutol)+75% saline to prepare solutions. The compound solutions were intravenously injected into beagles at a dose of 1.0 mg/kg, respectively. The blood was collected at time points of 0 min, 5 min, 15 min, 30 min, 1 h, 2 h, 4 h, 6 h, 8 h, 10 h and 24 h. […]
as §1, with “compound 17” for “compounds 11, 12”, “compound 37” for “35”, “PEG400+75% (20% Captisol in Water)” for “(30% Solutol)+75% saline”
Experimental compound 18 was dissolved in a mixture of 5% DMA+30% PEG400+65% (20% Captisol in Saline) to prepare a solution. The compound solution was intravenously injected into a beagle at a dose of 1.0 mg/kg. The blood was collected at time points of 0 min, 5 min, 15 min, 30 min, 1 h, 2 h, 4 h, 6 h, 8 h, 10 h and 24 h.
About 1 mL of blood was collected via the upper extremity, and the collected blood was placed in an anticoagulation tube containing EDTA-K2. The blood samples were centrifuged at 1800 g for 5 min at 4° C. to give plasma samples which were prepared within 30 min after blood collection. The plasma samples were stored in a refrigerator at −80° C. before test.
The samples to be tested were taken out from the refrigerator at −80° C., and vortexed for 5 min after naturally thawed at room temperature. 20 μL of plasma samples were each pipetted into a 1.5 mL centrifuge tube, and 200 μL of internal standard working solution (a solution of tolbutamide in methanol) at 100 ng/mL was added. The resulting mixture was mixed well, vortexed for 5 min, and then centrifuged at 12,000 rpm for 5 min. 50 μL of the supernatant was pipetted into a 96-well plate with 150 μL of water per well, and the plate was vortexed for 5 min and mixed well before LC-MS/MS analysis.
The concentrations of test samples were calculated by Analyst 1.6.3 from AB Sciex. Parameters such as mean, standard deviation and coefficient of variation (excluding those output directly by Analyst 1.6.3) were calculated by Microsoft Excel. PK parameters were calculated by Pharsight Phoenix 6.1 software NCA (Tmax was in median).

[2] = iv, n=3, read-out: AUClast iv (area under concentration-time curve for 0-24 h)
[3] = iv, n=3, read-out: tz1/2 iv (terminal half-life) (converted)
[4] = po (gavage), n=3, read-out: AUClast po (area under concentration-time curve for 0-24 h)
[5] = po (gavage), n=3, read-out: tz1/2 po (terminal half-life) (converted)

SMILES | pIC50 (Ron (h)) | AUC(0-t) [1, 2] | clearance ([1]; iv) | Vd ([1]; iv) | half-life [1, 3] | bioavailability [1] | Tmax ([1]; po (gavage)) | AUC(0-t) [1, 4] | half-life [1, 5]
CC(C)n1cc(-c2ccc(F)cc2)c(=O)c(C(=O)Nc2ccc(Oc3ccnc(N)c3Cl)cn2)n1 [Compound 11, N-(5-((2-amino-3-chloropyridin-4-yl)oxy)pyridin-2-yl)-5-(4-fluorophenyl)-1-isopropyl-4-oxo-1,4-dihydropyridazine-3-carboxamide] | 8.70 | 3.32 µg·h/mL | 0.26 L/h/kg | 5.36 L/kg | 15 h | 37.3% | 1 h | 1.36 µg·h/mL | 5.97 h
CC(C)n1cc(-c2ccc(F)cc2)c(=O)c(C(=O)Nc2ncc(Oc3ccnc(N)c3Cl)cn2)n1 [Compound 12, N-(5-((2-amino-3-chloropyridin-4-yl)oxy)pyrimidin-2-yl)-5-(4-fluorophenyl)-1-isopropyl-4-oxo-1,4-dihydropyridazine-3-carboxamide] | 7.72 | 1.53 µg·h/mL | 0.65 L/h/kg | 1.04 L/kg | 1.1 h | 78% | 0.5 h | 1.19 µg·h/mL | 1.24 h
CC(C)n1cc(-c2ccc(F)cc2)c(=O)c(C(=O)Nc2ccc(Oc3ccnc(N)c3Cl)nc2)n1 [Compound 13, N-(6-((2-amino-3-chloropyridin-4-yl)oxy)pyridin-3-yl)-5-(4-fluorophenyl)-1-isopropyl-4-oxo-1,4-dihydropyridazine-3-carboxamide] | 7.80 | – | – | – | – | – | – | – | –
Nc1nccc(Oc2ccc(NC(=O)c3nn(C4CC4)cc(-c4ccc(F)cc4)c3=O)nc2)c1Cl [Compound 17, N-(5-((2-amino-3-chloropyridin-4-yl)oxy)pyridin-2-yl)-1-cyclopropyl-5-(4-fluorophenyl)-4-oxo-1,4-dihydropyridazine-3-carboxamide] | 8.15 | 3.36 µg·h/mL | 0.3 L/h/kg | 3.16 L/kg | 7.46 h | 109% | 1 h | 3.67 µg·h/mL | 13.6 h
Nc1nccc(Oc2cnc(NC(=O)c3nn(C4CC4)cc(-c4ccc(F)cc4)c3=O)nc2)c1Cl [Compound 18, N-(5-((2-amino-3-chloropyridin-4-yl)oxy)pyrimidin-2-yl)-5-(4-fluorophenyl)-1-cyclopropyl-4-oxo-1,4-dihydropyridazine-3-carboxamide] | 7.85 | 3.73 µg·h/mL | 0.29 L/h/kg | 0.65 L/kg | 1.54 h | 29.7% | 1 h | 1.09 µg·h/mL | 2 h
Nc1nccc(Oc2ccc(NC(=O)c3nn(C4CC4)cc(-c4ccc(F)cc4)c3=O)cn2)c1Cl [Compound 19, N-(6-((2-amino-3-chloropyridin-4-yl)oxy)pyridin-3-yl)-1-cyclopropyl-5-(4-fluorophenyl)-4-oxo-1,4-dihydropyridazine-3-carboxamide] | 7.19 | – | – | – | – | – | – | – | –
Cn1cc(-c2ccc(F)cc2)c(=O)c(C(=O)Nc2ccc(Oc3ccnc(N)c3Cl)cn2)n1 [Compound 33, N-(5-((2-amino-3-chloropyridin-4-yl)oxy)pyridin-2-yl)-5-(4-fluorophenyl)-1-methyl-4-oxo-1,4-dihydropyridazine-3-carboxamide] | 7.77 | – | – | – | – | – | – | – | –
C=CCn1cc(-c2ccc(F)cc2)c(=O)c(C(=O)Nc2ccc(Oc3ccnc(N)c3Cl)cn2)n1 [Compound 35, 1-allyl-N-(5-((2-amino-3-chloropyridin-4-yl)oxy)pyridin-2-yl)-5-(4-fluorophenyl)-4-oxo-1,4-dihydropyridazine-3-carboxamide] | 8.30 | 4.12 µg·h/mL | 0.23 L/h/kg | 3.16 L/kg | 9.32 h | 50.7% | 1 h | 2.19 µg·h/mL | 4.01 h
C=CCn1cc(-c2ccc(F)cc2)c(=O)c(C(=O)Nc2ncc(Oc3ccnc(N)c3Cl)cn2)n1 [Compound 37] | 7.92 | 2.6 µg·h/mL | 0.41 L/h/kg | 1.07 L/kg | 1.79 h | 70.6% | 0.5 h | 1.83 µg·h/mL | 1.88 h
C=CCn1cc(-c2ccc(F)cc2)c(=O)c(C(=O)Nc2ccc(Oc3ccnc(N)c3Cl)nc2)n1 [Compound 39, 1-allyl-N-(6-((2-amino-3-chloropyridin-4-yl)oxy)pyridin-3-yl)-5-(4-fluorophenyl)-4-oxo-1,4-dihydropyridazine-3-carboxamide] | 7.92 | – | – | – | – | – | – | – | –
